# Test system: 616215-338-R-J1-PDC spheroids with HUVEC/MSC, viability
# Assay: Anticancer human tumor 616215-338-R-J1-PDC patient-derived colon adenocarcinoma cell line growth inhibition [PI3K]
# Conditions: for IC50: curve of first compound; for viability, T/C: stronger effect = lower value
# Text: Combinatorial screen of targeted agents with the PI3K inhibitors inavolisib, alpelisib, duvelisib, and copanlisib in multi-cell type tumor spheroids
# A high-throughput screen of multi-cell type tumor spheroids was designed to identify active combinations of targeted small molecules and PI3K pathway inhibitors. Complex spheroids include a stromal component modeled by human endothelial cells (HUVEC) and fibroblasts modeled by human mesenchymal stem cells (MSCs). The concentration ranges selected for each drug and investigational agent were based upon clinically achievable concentrations if the clinical Cmax of the agent was known.
# Compounds. The drugs and investigational agents: inavolisib (NSC800729), alpelisib (NSC765974), duvelisib (NSC772469), copanlisib (NSC816437), ipatasertib (NSC767898), afuresertib (NSC778305), talazoparib (NSC767125), sapanisertib (NSC764658), selumetinib (NSC741078), tovorafenib (DAY101, NSC766906), vemurafenib (NSC761431), ravoxertinib (NSC781343), sotorasib (NSC818433), MRTX1133 (NSC 836407), abemaciclib (NSC 768073), palbociclib (NSC758247), venetoclax (NSC 766270), SY5609 (NSC837396), enzalutamide (NSC755605), and darolutamide (NSC825331), were obtained from the National Cancer Institute (NCI) Developmental Therapeutics Program Chemical Repository. The FDA-approved anticancer drug set is available from the NCI Developmental Therapeutics Program. […] The stock solutions were prepared in dimethyl sulfoxide (DMSO, Sigma-Aldrich, St. Louis, MO, cat. D2650) at 800-fold the tested concentration and stored at -70 degrees C prior to their use. All drugs and investigational agents were tested over a range starting from a high concentration at or near the clinical Cmax and decreasing in half-log increments. If the clinical Cmax for an agent had not been determined, the highest concentration tested was 10 microM.
# Cell Culture. All cells were maintained in an incubator at 37 degrees C and 5% CO2 with 95% humidity. The PDC lines were cultured according to standard operating procedures established by the NCI PDMR (https://pdmr.cancer.gov/sops/default.htm). All PDCs were thawed and cultured in Matrigel-coated flasks prepared with a working solution of 1X Ham's F-12 nutrient mix, without supplementation (Invitrogen, Waltham, MA, cat. 11765054), 100 U/mL penicillin-streptomycin (Invitrogen, cat. 15140122), and 2.5% Matrigel (Corning Inc., Corning, NY, cat. 354248) for the first three passages. The 354836-022-R-J1-PDC, 475296-252-R-J1-PDC, and 997726-040-R-J2-PDC lines were cultured in 6A media, which includes advanced DMEM/F-12 (Thermo Fisher Scientific, cat. 12634028), 10 mM HEPES (Thermo Fisher Scientific, cat. 15630080), 1X GlutaMAX supplement (Thermo Fisher Scientific, cat. 35050061), 0.1 mg/mL primocin (InvivoGen, San Diego, CA, cat. ant-pm-2), 10% defined fetal bovine serum, heat inactivated (HyClone Laboratories Inc., Logan, UT, cat. SH30070.03HI), 50% L-WRN conditioned media (ATCC, cat. CRL-3276), 1.25 mM N-Acetyl-L-cysteine (Sigma-Aldrich, cat. A9165), 10 mM nicotinamide (Sigma-Aldrich, cat. N0636), 1X B-27 supplement (Thermo Fisher Scientific, cat. 17504044), 1X N-2 supplement (Thermo Fisher Scientific, cat. 17502048), and 10 microM Y-27632 dihydrochloride (Tocris Bioscience, Bristol, United Kingdom, cat. 1254). The 624824-186-R-J2-PDC line was cultured in 6C/Colon 1B media, which includes all 6A media components plus 50 ng/mL human EGF recombinant protein (Thermo Fisher Scientific, cat. PHG0311). […]
# [1] = second compound 0.00316 µM, first compound 0.0316 µM
# [2] = second compound 0.00316 µM, first compound 0.1 µM
# [3] = second compound 0.00316 µM, first compound 0.316 µM
# [4] = second compound 0.00316 µM, first compound 1 µM
# [5] = second compound 0.00316 µM, first compound 3.16 µM
# [6] = second compound 0.00316 µM, first compound 10 µM
# [7] = second compound 0.01 µM, first compound 0.0316 µM
# [8] = second compound 0.01 µM, first compound 0.1 µM
# [9] = second compound 0.01 µM, first compound 0.316 µM
# [10] = second compound 0.01 µM, first compound 1 µM
# [11] = second compound 0.01 µM, first compound 3.16 µM
# [12] = second compound 0.01 µM, first compound 10 µM
# [13] = second compound 0.0316 µM, first compound 0.0316 µM
# [14] = second compound 0.0316 µM, first compound 0.1 µM
# [15] = second compound 0.0316 µM, first compound 0.316 µM
# [16] = second compound 0.0316 µM, first compound 1 µM
# [17] = second compound 0.0316 µM, first compound 3.16 µM
# [18] = second compound 0.0316 µM, first compound 10 µM
# [19] = second compound 0.1 µM, first compound 0.0316 µM
# [20] = second compound 0.1 µM, first compound 0.1 µM
# [21] = second compound 0.1 µM, first compound 0.316 µM
# [22] = second compound 0.1 µM, first compound 1 µM
# [23] = second compound 0.1 µM, first compound 3.16 µM
# [24] = second compound 0.1 µM, first compound 10 µM
# [25] = second compound 0.316 µM, first compound 0.0316 µM
# [26] = second compound 0.316 µM, first compound 0.1 µM
# [27] = second compound 0.316 µM, first compound 0.316 µM
# [28] = second compound 0.316 µM, first compound 1 µM
# [29] = second compound 0.316 µM, first compound 3.16 µM
# [30] = second compound 0.316 µM, first compound 10 µM
# [31] = second compound 1 µM, first compound 0.0316 µM
# [32] = second compound 1 µM, first compound 0.1 µM
# [33] = second compound 1 µM, first compound 0.316 µM
# [34] = second compound 1 µM, first compound 1 µM
# [35] = second compound 1 µM, first compound 3.16 µM
# [36] = second compound 1 µM, first compound 10 µM
# 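Further: spheroids exposed to agents for seven days before the viability read.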
smiles,measurement,setting,value
CC1(C)CCC(CN2CCN(c3ccc(C(=O)NS(=O)(=O)c4ccc(NCC5CCOCC5)c([N+](=O)[O-])c4)c(Oc4cnc5[nH]ccc5c4)c3)CC2)=C(c2ccc(Cl)cc2)C1 + CC(Nc1ccc2c(c1)OCCn1cc(N3C(=O)OCC3C(F)F)nc1-2)C(N)=O,IC50,second compound 0.00316 µM,4.6 µM
same,IC50,second compound 0.01 µM,4.67 µM
same,IC50,second compound 0.0316 µM,5.27 µM
same,IC50,second compound 0.1 µM,5.25 µM
same,IC50,second compound 0.316 µM,5.43 µM
same,IC50,second compound 1 µM,5.18 µM
same,"viability, T/C",[1],88.6%
same,"viability, T/C",[2],95.9%
same,"viability, T/C",[3],104%
same,"viability, T/C",[4],101%
same,"viability, T/C",[5],72.8%
same,"viability, T/C",[6],2.83%
same,"viability, T/C",[7],92.9%
same,"viability, T/C",[8],101%
same,"viability, T/C",[9],99.4%
same,"viability, T/C",[10],106%
same,"viability, T/C",[11],74.5%
same,"viability, T/C",[12],2.57%
same,"viability, T/C",[13],90.5%
same,"viability, T/C",[14],94.3%
same,"viability, T/C",[15],96.6%
same,"viability, T/C",[16],102%
same,"viability, T/C",[17],86.9%
same,"viability, T/C",[18],3.65%
same,"viability, T/C",[19],105%
same,"viability, T/C",[20],97.8%
same,"viability, T/C",[21],102%
same,"viability, T/C",[22],93.2%
same,"viability, T/C",[23],87.9%
same,"viability, T/C",[24],1.87%
same,"viability, T/C",[25],98.5%
same,"viability, T/C",[26],86.5%
same,"viability, T/C",[27],93.5%
same,"viability, T/C",[28],102%
same,"viability, T/C",[29],92.5%
same,"viability, T/C",[30],2.04%
same,"viability, T/C",[31],107%
same,"viability, T/C",[32],104%
same,"viability, T/C",[33],113%
same,"viability, T/C",[34],103%
same,"viability, T/C",[35],86.3%
same,"viability, T/C",[36],1.64%
C[C@@H](NC(=O)c1ncnc(N)c1Cl)c1ncc(C(=O)Nc2cc(C(F)(F)F)c(Cl)cn2)s1 + CC(Nc1ccc2c(c1)OCCn1cc(N3C(=O)OCC3C(F)F)nc1-2)C(N)=O,IC50,second compound 0.00316 µM,> 10 µM
same,IC50,second compound 0.01 µM,> 10 µM
same,IC50,second compound 0.0316 µM,> 10 µM
same,IC50,second compound 0.1 µM,> 10 µM
same,IC50,second compound 0.316 µM,> 10 µM
same,IC50,second compound 1 µM,7.36 µM
same,"viability, T/C",[1],103%
same,"viability, T/C",[2],101%
same,"viability, T/C",[3],107%
same,"viability, T/C",[4],106%
same,"viability, T/C",[5],96.5%
same,"viability, T/C",[6],88.7%
same,"viability, T/C",[7],102%
same,"viability, T/C",[8],109%
same,"viability, T/C",[9],98.1%
same,"viability, T/C",[10],104%
same,"viability, T/C",[11],93.3%
same,"viability, T/C",[12],74.8%
same,"viability, T/C",[13],95.5%
same,"viability, T/C",[14],104%
same,"viability, T/C",[15],101%
same,"viability, T/C",[16],103%
same,"viability, T/C",[17],115%
same,"viability, T/C",[18],66%
same,"viability, T/C",[19],100%
same,"viability, T/C",[20],104%
same,"viability, T/C",[21],115%
same,"viability, T/C",[22],102%
same,"viability, T/C",[23],99.5%
same,"viability, T/C",[24],65.7%
same,"viability, T/C",[25],121%
same,"viability, T/C",[26],99%
same,"viability, T/C",[27],94.8%
same,"viability, T/C",[28],98.6%
same,"viability, T/C",[29],85.6%
same,"viability, T/C",[30],60.6%
same,"viability, T/C",[31],101%
same,"viability, T/C",[32],95.7%
same,"viability, T/C",[33],88.1%
same,"viability, T/C",[34],98%
same,"viability, T/C",[35],73.7%
same,"viability, T/C",[36],41.4%

# — PubChem BioAssay AID1963978 (Molecular Pharmacology Branch, DTP, NCI, 2024)
